Target: T1, Serratia marcescens Sr41 (FERM BP-No. 487) esterase, purified esterase of Example 2 (Serratia marcescens, UniProt Q59932)
T1 construct: 62 kDa by SDS-PAGE; N-terminus XIFSYKDLDENA
T1 sequence (Q59932 2-613): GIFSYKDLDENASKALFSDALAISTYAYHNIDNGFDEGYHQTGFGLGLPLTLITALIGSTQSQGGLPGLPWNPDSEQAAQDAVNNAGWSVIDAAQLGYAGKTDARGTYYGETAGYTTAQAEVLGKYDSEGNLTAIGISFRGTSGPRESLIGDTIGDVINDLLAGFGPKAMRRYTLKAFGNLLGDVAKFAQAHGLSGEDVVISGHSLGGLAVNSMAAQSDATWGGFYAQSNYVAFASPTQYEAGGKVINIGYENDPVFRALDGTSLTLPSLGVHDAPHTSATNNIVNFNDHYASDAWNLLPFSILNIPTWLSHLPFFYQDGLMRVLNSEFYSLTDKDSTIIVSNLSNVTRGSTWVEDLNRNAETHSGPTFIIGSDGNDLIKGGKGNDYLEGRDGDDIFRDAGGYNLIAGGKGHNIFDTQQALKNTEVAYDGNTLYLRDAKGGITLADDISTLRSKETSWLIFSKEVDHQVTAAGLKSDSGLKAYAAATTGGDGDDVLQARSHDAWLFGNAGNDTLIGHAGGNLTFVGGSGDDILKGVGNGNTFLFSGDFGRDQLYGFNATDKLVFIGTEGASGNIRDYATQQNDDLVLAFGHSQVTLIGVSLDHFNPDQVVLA
Assay: biochemical
Conditions: for Relative activity: 1 mM inhibitor added to enzyme solution, activity with no addition = 100, olive oil substrate, pH 8.0, 37° C.
Method: A mixture of 225 ml of 2% polyvinyl alcohol (Poval 117, manufactured by Kurare Co., Ltd.) and 75 ml of olive oil was emulsified by stirring at 14,500 rpm at 5°-10° C. for 10 minutes. 5.0 ml of the olive oil-emulsion thus-obtained and 4.0 ml of 0.25M Tris-HCl buffer (pH 8.0, containing 2.5 mM calcium chloride) were preincubated at 37° C. for 10 minutes. One ml of an enzyme solution was added thereto to initiate enzymatic reaction. After the mixture was incubated at 37° C. for 20 minutes, 20 ml of a mixture of acetone-ethanol (1:1) were added to the reaction mixture to stop the enzymatic reaction. The mixture was titrated with 0.05N sodium hydroxide solution by using phenolphthalein as the indicator. A blank solution was prepared in the same manner as above except that acetone-ethanol (1:1) is added to the substrate solution before addition of the enzyme solution. Said blank solution was titrated in the same manner as above. The amount of enzyme which liberated one μmole of fatty acid per minute was defined as one unit (U).
The effect of metal ions or known enzyme-inhibitors on the purified esterase obtained in Example 2 was investigated as follows: […]

SMILES | Inhibition of esterase activity | activity at 1000 µM (20 min, pH 8, read-out: Relative activity) [%] | Relative activity (20 min) [%]
O=C(O)CN(CCN(CC(=O)O)CC(=O)O)CC(=O)O [Ethylenediaminetetraacetic acid] | completely inhibited | 0 | 
O=S(=O)(F)Cc1ccccc1 [Phenylmethylsulfonyl fluoride] |  |  | 100
O=C(O)c1cc[c]([Hg][Cl])cc1 [p-Chloromercury benzoate] |  |  | 86

Source: patent US5208156A, “Esterase purified from serratia marcescens SR41 (FERM BP-No. 487)” (priority 1990, dated 1993)
